Common to all, as to test: Greenhouse herbicidal activity assay, post-emergence
Type in all cases: in vivo
What all share (conditions): Post-emergence test, rate 150 g a.i./hm^2, grade by fresh weight inhibition rate

One assay deals with Cyperus iria. The method, boiled down:
(§1)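 Scores reflect fresh weight inhibition assessed 14-21 days after treatment, with grade A meaning ≥80% to 100% and grade E meaning <20%. Plants, raised in nutrient-soil pots inside a growth chamber, were sprayed on the foliage at the 3-6 leaf stage.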

The next assay deals with Digitaria sanguinalis. The procedure, abridged: as §1
The subject of the next assay is Echinochloa crusgalli. The method, boiled down:
as §1

The next assay deals with Eclipta prostrata. The method, boiled down:
as §1

The test system of a further assay is Leptochloa chinensis. The procedure, abridged: as §1

Each structure is given as a SMILES string.

In the case of `CCc1nnc(NC(=O)c2ccc(S(C)(=O)=O)c([S+]([O-])C3CC3)c2Cl)o1` (racemic) [Compound 3-420], in the assay with Cyperus iria, the “Control efficacy grade, Cyperus iria” value is given as “A (Fresh weight inhibition rate≥80% to 100%)”. In addition, in the assay on Digitaria sanguinalis, the “Control efficacy grade, Digitaria sanguinalis” value is “A (Fresh weight inhibition rate≥80% to 100%)”. In the assay with Echinochloa crusgalli, the “Control efficacy grade, Echinochloa crusgalli” value is “A (Fresh weight inhibition rate≥80% to 100%)”. Moreover, the “Control efficacy grade, Eclipta prostrata” value with Eclipta prostrata is listed as “A (Fresh weight inhibition rate≥80% to 100%)”. In addition, the “Control efficacy grade, Leptochloa chinensis” value with Leptochloa chinensis is “A (Fresh weight inhibition rate≥80% to 100%)”.
As for `CS(=O)(=O)c1ccc(C(=O)Nc2nnco2)c(Cl)c1[S+]([O-])CC(F)(F)F` (racemic) [Compound 3-324], in the assay with Cyperus iria, the “Control efficacy grade, Cyperus iria” value was “A (Fresh weight inhibition rate≥80% to 100%)”. Also, in the assay with Digitaria sanguinalis, the “Control efficacy grade, Digitaria sanguinalis” value is “A (Fresh weight inhibition rate≥80% to 100%)”. Further, the “Control efficacy grade, Echinochloa crusgalli” value in the assay on Echinochloa crusgalli was “A (Fresh weight inhibition rate≥80% to 100%)”. The “Control efficacy grade, Eclipta prostrata” value in the assay on Eclipta prostrata is listed as “A (Fresh weight inhibition rate≥80% to 100%)”. For the same compound, the “Control efficacy grade, Leptochloa chinensis” value in the assay on Leptochloa chinensis is “A (Fresh weight inhibition rate≥80% to 100%)”.
As for `CCC[S+]([O-])c1c(S(C)(=O)=O)ccc(C(=O)Nc2nnnn2C)c1Cl` (racemic) [Compound 1-2, 2-chloro-N-(1-methyl-1H-tetrazol-5-yl)-4-(methylsulfonyl)-3-(propylsulfinyl)benzamide], the pest or weed control at 150 g/ha in the assay on Cyperus iria (Cyperus iria, read-out: Control efficacy grade, Cyperus iria) lay within 80 to 100%; in the assay with Digitaria sanguinalis (Digitaria sanguinalis, read-out: Control efficacy grade, Digitaria sanguinalis), 80 to 100%; in the assay with Echinochloa crusgalli (Echinochloa crus-galli, read-out: Control efficacy grade, Echinochloa crusgalli), 80 to 100%; in the assay on Eclipta prostrata (Eclipta prostrata, read-out: Control efficacy grade, Eclipta prostrata) it was 80 to 100%; in the assay on Leptochloa chinensis (Dinebra chinensis, read-out: Control efficacy grade, Leptochloa chinensis), 80 to 100%.
For the compound `CS(=O)(=O)c1ccc(C(=O)Nc2nnco2)c(Cl)c1[S+]([O-])CC(F)F` (racemic) [Compound 3-329], the “Control efficacy grade, Cyperus iria” value in the assay with Cyperus iria is reported as “A (Fresh weight inhibition rate≥80% to 100%)”. Further, the “Control efficacy grade, Digitaria sanguinalis” value with Digitaria sanguinalis is “A (Fresh weight inhibition rate≥80% to 100%)”. The “Control efficacy grade, Echinochloa crusgalli” value in the assay with Echinochloa crusgalli is “A (Fresh weight inhibition rate≥80% to 100%)”. Besides, the “Control efficacy grade, Eclipta prostrata” value in the assay with Eclipta prostrata was “A (Fresh weight inhibition rate≥80% to 100%)”. Also, in the assay with Leptochloa chinensis, the “Control efficacy grade, Leptochloa chinensis” value is recorded as “A (Fresh weight inhibition rate≥80% to 100%)”.
Regarding `CS(=O)(=O)c1ccc(C(=O)Nc2nnc(C3CC3)o2)c(Cl)c1[S+]([O-])C1CCCCC1` (racemic) [Compound 3-667], in the assay with Cyperus iria, the “Control efficacy grade, Cyperus iria” value was “A (Fresh weight inhibition rate≥80% to 100%)”. Also, in the assay on Digitaria sanguinalis, the “Control efficacy grade, Digitaria sanguinalis” value is reported as “A (Fresh weight inhibition rate≥80% to 100%)”. In addition, in the assay with Echinochloa crusgalli, the “Control efficacy grade, Echinochloa crusgalli” value is recorded as “C (Fresh weight inhibition rate≥40% to <60%)”. The “Control efficacy grade, Eclipta prostrata” value with Eclipta prostrata is “A (Fresh weight inhibition rate≥80% to 100%)”. In addition, the “Control efficacy grade, Leptochloa chinensis” value in the assay on Leptochloa chinensis was “A (Fresh weight inhibition rate≥80% to 100%)”.
In the case of `Cc1nnc(NC(=O)c2ccc(S(C)(=O)=O)c([S+]([O-])CCC(C)C)c2Cl)o1` (racemic) [Compound 3-53], the “Control efficacy grade, Cyperus iria” value in the assay on Cyperus iria is reported as “A (Fresh weight inhibition rate≥80% to 100%)”. Besides, in the assay with Digitaria sanguinalis, the “Control efficacy grade, Digitaria sanguinalis” value is recorded as “A (Fresh weight inhibition rate≥80% to 100%)”. Further, in the assay with Echinochloa crusgalli, the “Control efficacy grade, Echinochloa crusgalli” value is “B (Fresh weight inhibition rate≥260% to <80%)”. Moreover, in the assay on Eclipta prostrata, the “Control efficacy grade, Eclipta prostrata” value is recorded as “A (Fresh weight inhibition rate≥80% to 100%)”. The “Control efficacy grade, Leptochloa chinensis” value with Leptochloa chinensis is listed as “A (Fresh weight inhibition rate≥80% to 100%)”.
With `CS(=O)(=O)c1ccc(C(=O)Nc2nnc(C3CC3)o2)c(Cl)c1[S+]([O-])C(F)(F)C(F)(F)F` (racemic) [Compound 3-692], the “Control efficacy grade, Cyperus iria” value in the assay on Cyperus iria is listed as “A (Fresh weight inhibition rate≥80% to 100%)”. For the same compound, the “Control efficacy grade, Digitaria sanguinalis” value with Digitaria sanguinalis is recorded as “A (Fresh weight inhibition rate≥80% to 100%)”. In addition, the “Control efficacy grade, Echinochloa crusgalli” value in the assay on Echinochloa crusgalli was “A (Fresh weight inhibition rate≥80% to 100%)”. Further, in the assay on Eclipta prostrata, the “Control efficacy grade, Eclipta prostrata” value is listed as “A (Fresh weight inhibition rate≥80% to 100%)”. The “Control efficacy grade, Leptochloa chinensis” value with Leptochloa chinensis is reported as “A (Fresh weight inhibition rate≥80% to 100%)”.
Take `CCC[S+]([O-])c1c(S(C)(=O)=O)ccc(C(=O)Nc2nnc(C)o2)c1Cl` (racemic) [Compound 3-2]: in the assay on Cyperus iria, the “Control efficacy grade, Cyperus iria” value is recorded as “A (Fresh weight inhibition rate≥80% to 100%)”. The “Control efficacy grade, Digitaria sanguinalis” value in the assay on Digitaria sanguinalis is reported as “A (Fresh weight inhibition rate≥80% to 100%)”. Also, in the assay on Echinochloa crusgalli, the “Control efficacy grade, Echinochloa crusgalli” value was “A (Fresh weight inhibition rate≥80% to 100%)”. Further, the “Control efficacy grade, Eclipta prostrata” value in the assay on Eclipta prostrata was “A (Fresh weight inhibition rate≥80% to 100%)”. Moreover, in the assay with Leptochloa chinensis, the “Control efficacy grade, Leptochloa chinensis” value is “A (Fresh weight inhibition rate≥80% to 100%)”.
Turning to `CC(C)c1nnc(NC(=O)c2ccc(S(C)(=O)=O)c([S+]([O-])C3CC3)c2Cl)o1` (racemic) [Compound 3-536], the “Control efficacy grade, Cyperus iria” value with Cyperus iria is given as “A (Fresh weight inhibition rate≥80% to 100%)”. Also, the “Control efficacy grade, Digitaria sanguinalis” value in the assay on Digitaria sanguinalis is on record as “B (Fresh weight inhibition rate≥260% to <80%)”. Besides, the “Control efficacy grade, Echinochloa crusgalli” value in the assay on Echinochloa crusgalli was “A (Fresh weight inhibition rate≥80% to 100%)”. The “Control efficacy grade, Eclipta prostrata” value in the assay on Eclipta prostrata was “A (Fresh weight inhibition rate≥80% to 100%)”. Further, the “Control efficacy grade, Leptochloa chinensis” value with Leptochloa chinensis is recorded as “A (Fresh weight inhibition rate≥80% to 100%)”.
Consider `Cn1ncnc1NC(=O)c1ccc(S(C)(=O)=O)c(SC2CCC2)c1Cl` [Compound 2-37], for which the “Control efficacy grade, Cyperus iria” value in the assay on Cyperus iria is reported as “A (Fresh weight inhibition rate≥80% to 100%)”. Moreover, in the assay on Digitaria sanguinalis, the “Control efficacy grade, Digitaria sanguinalis” value was “B (Fresh weight inhibition rate≥260% to <80%)”. The “Control efficacy grade, Echinochloa crusgalli” value in the assay on Echinochloa crusgalli is reported as “A (Fresh weight inhibition rate≥80% to 100%)”. In the assay on Eclipta prostrata, the “Control efficacy grade, Eclipta prostrata” value is “A (Fresh weight inhibition rate≥80% to 100%)”. The “Control efficacy grade, Leptochloa chinensis” value in the assay on Leptochloa chinensis was “A (Fresh weight inhibition rate≥80% to 100%)”.
On to `Cn1nnnc1NC(=O)c1ccc(S(C)(=O)=O)c(SC2CC2)c1Cl` [Compound 1-32], for which the “Control efficacy grade, Cyperus iria” value in the assay with Cyperus iria was “A (Fresh weight inhibition rate≥80% to 100%)”. In the assay on Digitaria sanguinalis, the “Control efficacy grade, Digitaria sanguinalis” value is listed as “A (Fresh weight inhibition rate≥80% to 100%)”. In the assay with Echinochloa crusgalli, the “Control efficacy grade, Echinochloa crusgalli” value is given as “A (Fresh weight inhibition rate≥80% to 100%)”. For the same compound, the “Control efficacy grade, Eclipta prostrata” value in the assay on Eclipta prostrata is recorded as “A (Fresh weight inhibition rate≥80% to 100%)”. The “Control efficacy grade, Leptochloa chinensis” value in the assay with Leptochloa chinensis is “A (Fresh weight inhibition rate≥80% to 100%)”.
On to `Cn1nnnc1NC(=O)c1ccc(S(C)(=O)=O)c([S+]([O-])CC(F)F)c1Cl` (racemic) [Compound 1-58], for which the “Control efficacy grade, Cyperus iria” value in the assay on Cyperus iria is recorded as “B (Fresh weight inhibition rate≥260% to <80%)”. Besides, the “Control efficacy grade, Digitaria sanguinalis” value in the assay with Digitaria sanguinalis is reported as “A (Fresh weight inhibition rate≥80% to 100%)”. Also, the “Control efficacy grade, Echinochloa crusgalli” value in the assay with Echinochloa crusgalli is listed as “A (Fresh weight inhibition rate≥80% to 100%)”. Besides, the “Control efficacy grade, Eclipta prostrata” value in the assay with Eclipta prostrata is “A (Fresh weight inhibition rate≥80% to 100%)”. Besides, the “Control efficacy grade, Leptochloa chinensis” value in the assay on Leptochloa chinensis was “A (Fresh weight inhibition rate≥80% to 100%)”.
With `C=CCSc1c(S(C)(=O)=O)ccc(C(=O)Nc2nnco2)c1Cl` [Compound 3-338], the “Control efficacy grade, Cyperus iria” value in the assay on Cyperus iria was “A (Fresh weight inhibition rate≥80% to 100%)”. In the assay on Digitaria sanguinalis, the “Control efficacy grade, Digitaria sanguinalis” value was “C (Fresh weight inhibition rate≥40% to <60%)”. In the assay on Echinochloa crusgalli, the “Control efficacy grade, Echinochloa crusgalli” value is “A (Fresh weight inhibition rate≥80% to 100%)”. Further, the “Control efficacy grade, Eclipta prostrata” value in the assay with Eclipta prostrata was “A (Fresh weight inhibition rate≥80% to 100%)”. Also, the “Control efficacy grade, Leptochloa chinensis” value with Leptochloa chinensis was “A (Fresh weight inhibition rate≥80% to 100%)”.

(Values after patent US20250223268A1, “4-Methylsulfonylbenzamide Compound, Preparation Method, Herbicidal Composition And Use” (Jiangsu Flag Chemical Industry Co., Ltd., priority 2022, published 2025).)
